In patent US20230357269A1 (LES LABORATOIRES SERVIER, priority 2020, published 2023):

molecular target: human recombinant LRRK2 protein (Homo sapiens (Human), UniProt Q5S007); assay: LRRK2 Kinase Activity Assay (ADP-Glo); assay type: biochemical; settings: LRRK2 wt; LRRKtide peptide and ATP substrates; 1h-incubation at 37° C.
Protocol: LRRK2 Kinase reactions were carried out in 384-well white polystyrene plates in a final volume of 6 μl using ADP-Glo™ Kinase Assay kit (Promega Corp.). Compound and substrates (LRRKtide peptide and ATP) in assay buffer were first dispensed in wells. Kinase reaction was then started by the addition of human recombinant LRRK2 protein. After 1h-incubation at 37° C., the enzymatic reaction was stopped by the addition of 6 μl of ADP-Glo Reagent-1 and an additional 40-minutes incubation at 23° C. (residual ATP depletion). A final 30-minutes incubation after 12 μL reagent-2 addition (ADP to ATP conversion and luciferin/luciferase reaction) was performed before luminescent signal acquisition (EnVision™ multimode plate reader-PerkinElmer, Inc.). Data from 10 individual concentrations of tested compounds (N=2) were fitted (XLfit™-ID Business Solutions Ltd) to deliver IC50s (compound concentration leading to 50% inhibition of reference enzymatic activity).
The compounds are dissolved to 5 mM in DMSO. When needed, solutions are sonicated in a bath sonicator.
Table 2 provides the IC50 values of the compounds according to the invention, obtained using the above-mentioned kinase assay. Activities are represented as +++, ++ and +, having the following meanings: • +++ means IC50<10 nM • ++ means 10 nM≤IC50<100 nM • + means 100 nM≤IC50<1 μM.

human recombinant LRRK2 protein, sequence (Q5S007 whole entry): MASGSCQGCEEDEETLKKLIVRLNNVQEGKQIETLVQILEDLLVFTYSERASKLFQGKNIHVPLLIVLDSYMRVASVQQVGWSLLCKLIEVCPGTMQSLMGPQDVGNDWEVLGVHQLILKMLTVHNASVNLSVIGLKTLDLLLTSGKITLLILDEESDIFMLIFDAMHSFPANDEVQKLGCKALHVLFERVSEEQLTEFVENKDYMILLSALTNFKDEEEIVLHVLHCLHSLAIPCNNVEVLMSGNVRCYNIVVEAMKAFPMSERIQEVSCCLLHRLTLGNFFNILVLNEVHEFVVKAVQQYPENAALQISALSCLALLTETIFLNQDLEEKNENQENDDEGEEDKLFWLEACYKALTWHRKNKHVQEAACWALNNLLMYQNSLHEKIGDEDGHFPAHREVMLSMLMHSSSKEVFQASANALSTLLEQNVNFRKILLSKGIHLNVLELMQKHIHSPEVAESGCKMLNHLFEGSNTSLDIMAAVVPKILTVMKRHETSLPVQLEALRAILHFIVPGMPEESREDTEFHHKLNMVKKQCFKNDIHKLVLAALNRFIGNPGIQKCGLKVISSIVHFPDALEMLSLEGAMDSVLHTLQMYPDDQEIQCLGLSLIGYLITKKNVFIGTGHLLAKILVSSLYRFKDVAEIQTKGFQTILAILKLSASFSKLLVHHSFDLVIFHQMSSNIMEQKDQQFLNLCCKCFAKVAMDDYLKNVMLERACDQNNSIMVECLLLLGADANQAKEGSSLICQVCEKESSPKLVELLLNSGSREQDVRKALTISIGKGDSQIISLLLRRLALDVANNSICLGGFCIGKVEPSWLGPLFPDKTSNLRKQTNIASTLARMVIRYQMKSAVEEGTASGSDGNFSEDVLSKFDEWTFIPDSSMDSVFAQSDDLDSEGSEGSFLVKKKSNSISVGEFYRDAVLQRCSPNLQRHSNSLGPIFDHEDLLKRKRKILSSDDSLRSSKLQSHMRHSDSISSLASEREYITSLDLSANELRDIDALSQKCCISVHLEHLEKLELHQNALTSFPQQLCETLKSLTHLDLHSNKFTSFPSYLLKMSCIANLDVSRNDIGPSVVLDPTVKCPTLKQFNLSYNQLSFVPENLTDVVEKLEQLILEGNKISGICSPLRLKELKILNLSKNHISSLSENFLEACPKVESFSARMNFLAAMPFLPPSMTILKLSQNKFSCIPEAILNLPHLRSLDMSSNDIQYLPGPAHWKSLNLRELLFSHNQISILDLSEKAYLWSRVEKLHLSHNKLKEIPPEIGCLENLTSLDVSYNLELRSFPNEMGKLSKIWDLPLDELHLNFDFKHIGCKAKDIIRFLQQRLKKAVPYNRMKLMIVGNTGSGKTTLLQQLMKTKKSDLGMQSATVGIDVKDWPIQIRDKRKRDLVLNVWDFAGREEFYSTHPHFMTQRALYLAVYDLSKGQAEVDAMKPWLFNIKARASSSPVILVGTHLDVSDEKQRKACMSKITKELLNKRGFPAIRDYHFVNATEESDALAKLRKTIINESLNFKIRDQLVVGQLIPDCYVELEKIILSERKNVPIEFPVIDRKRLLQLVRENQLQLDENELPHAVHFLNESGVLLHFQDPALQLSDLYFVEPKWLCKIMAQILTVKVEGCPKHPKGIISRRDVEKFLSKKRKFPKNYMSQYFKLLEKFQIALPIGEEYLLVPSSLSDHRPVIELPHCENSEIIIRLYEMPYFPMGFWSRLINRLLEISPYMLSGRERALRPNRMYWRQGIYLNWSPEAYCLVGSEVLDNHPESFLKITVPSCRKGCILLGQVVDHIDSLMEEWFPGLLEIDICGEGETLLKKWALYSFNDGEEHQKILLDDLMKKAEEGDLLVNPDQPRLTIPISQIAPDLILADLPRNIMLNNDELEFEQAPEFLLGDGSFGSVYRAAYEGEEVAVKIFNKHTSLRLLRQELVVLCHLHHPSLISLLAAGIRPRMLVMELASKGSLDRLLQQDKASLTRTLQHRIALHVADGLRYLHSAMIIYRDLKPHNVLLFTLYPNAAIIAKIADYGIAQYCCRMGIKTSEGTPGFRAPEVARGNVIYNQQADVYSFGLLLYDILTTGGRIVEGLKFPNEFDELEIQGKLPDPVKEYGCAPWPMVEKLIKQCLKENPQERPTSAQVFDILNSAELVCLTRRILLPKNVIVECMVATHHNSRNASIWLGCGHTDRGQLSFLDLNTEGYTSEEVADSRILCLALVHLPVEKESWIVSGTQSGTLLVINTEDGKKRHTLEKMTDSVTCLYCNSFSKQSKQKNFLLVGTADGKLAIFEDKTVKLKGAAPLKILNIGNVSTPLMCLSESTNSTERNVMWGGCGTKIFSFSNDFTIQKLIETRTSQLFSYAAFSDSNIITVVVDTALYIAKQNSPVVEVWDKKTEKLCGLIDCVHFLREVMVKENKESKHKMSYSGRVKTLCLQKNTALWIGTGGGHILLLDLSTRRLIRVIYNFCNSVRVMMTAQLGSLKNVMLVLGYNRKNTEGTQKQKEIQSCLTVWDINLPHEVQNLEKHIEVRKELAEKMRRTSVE

`COCCC1CCN(c2cc3cc(c2)-c2n[nH]c4ccc(cc24)OCCCNC(=O)OC3)CC1` [Example 23, 4-[4-(2-methoxyethyl)piperidin-1-yl]-8,14-dioxa-10,19,20-triazatetracyclo[13.5.2.1^2,6.0^18,21]tricosa-1(20),2,4,6(23),15,17,21-heptaen-9-one] and `COCCN1CCN(c2cc3cc(c2)-c2n[nH]c4ccc(cc24)OCCCNC(=O)OC3)CC1` [Example 46, 4-[4-(2-methoxyethyl)piperazin-1-yl]-8,14-dioxa-10,19,20-triazatetracyclo[13.5.2.1^2,6.0^18,21]tricosa-1(20),2,4,6(23),15,17,21-heptaen-9-one] cannot be ordered by IC50: < 0.01 µM for the first, < 0.01 µM for the second.

First: O=C1NCCOc2ccc3[nH]nc(c3c2)-c2cccc(c2)CCO1 [Example 24, 9,14-dioxa-11,19,20-triazatetracyclo[13.5.2.1^2,6.0^18,21]tricosa-1(20),2,4, 6(23),15,17,21-heptaen-10-one]
Second: CC1CCNC(=O)OCc2cccc(c2)-c2n[nH]c3ccc(cc23)O1 (stereo not drawn) [Example 50, 13-methyl-8,14-dioxa-10,19,20-triazatetracyclo[13.5.2.1^2,6.0^18,21]tricosa-1(20),2,4,6(23),15,17,21-heptaen-9-one]
The IC50 of the first is higher: 0.01 to 0.1 µM for the first, < 0.01 µM for the second. The second is the more potent here.

`O=C1NCCCOc2ccc3[nH]nc(c3c2)-c2cc(cc(N3CC[C@@H](O)C3)c2)CO1` [Example 25, 4-[(3R)-3-hydroxypyrrolidin-1-yl]-8,14-dioxa-10,19,20-triazatetracyclo[13.5.2.1^2,6.0^18,21]tricosa-1(20),2,4,6(23),15,17,21-heptaen-9-one] and `O=C1NCCCOc2ccc3[nH]nc(c3c2)-c2cc(cc(N3CCC3)c2)CO1` [Example 35, 4-(azetidin-1-yl)-8,14-dioxa-10,19,20-triazatetracyclo[13.5.2.1^2,6.0^18,21]tricosa-1(20),2,4,6(23),15,17,21-heptaen-9-one] cannot be ordered by IC50: < 0.01 µM for the first, < 0.01 µM for the second.

`COCCN(C)c1cc2cc(c1)-c1n[nH]c3ccc(cc13)OCCCNC(=O)OC2` [Example 26, 4-[(2-methoxyethyl)(methyl)amino]-8,14-dioxa-10,19,20-triazatetracyclo[13.5.2.1^2,6.0^18,21]tricosa-1(20),2,4,6(23),15,17,21-heptaen-9-one] and `CCN(CC)c1cc2cc(c1)-c1n[nH]c3ccc(cc13)OCCCNC(=O)OC2` [Example 47, 4-(diethylamino)-8,14-dioxa-10,19,20-triazatetracyclo[13.5.2.1^2,6.0^18,21]tricosa-1(20),2,4,6(23),15,17,21-heptaen-9-one] cannot be ordered by IC50: < 0.01 µM for the first, < 0.01 µM for the second.

Compared with `O=C1NCCCOc2ccc3[nH]nc(c3c2)-c2cc(Cl)cc(c2)CO1` [Example 27, 4-chloro-8,14-dioxa-10,19,20-triazatetracyclo[13.5.2.1^2,6.0^18,21]tricosa-1(20), 2,4,6(23),15,17,21-heptaen-9-one], `CN(C)Cc1cc2cc(c1)-c1n[nH]c3ccc(cc13)OCCCNC(=O)OC2` [Example 53, 4-[(dimethylamino)methyl]-8,14-dioxa-10,19,20-triazatetracyclo[13.5.2.1^2,6.0^18,21]tricosa-1(20),2,4,6(23),15,17,21-heptaen-9-one] is higher in IC50: < 0.01 µM for the first, 0.01 to 0.1 µM for the second. The first is the more potent here.

`Cc1c(F)cc2cc1COC(=O)NCCCOc1ccc3[nH]nc-2c3c1` [Example 28, 4-fluoro-5-methyl-8,14-dioxa-10,19,20-triazatetracyclo[13.5.2.1^2,6.0^18,21]tricosa-1(20),2,4,6(23),15,17,21-heptaen-9-one] and `O=C1NCCCOc2ccc3[nH]nc(c3c2)-c2cc(F)c(F)c(c2)CO1` [Example 29, 4,5-difluoro-8,14-dioxa-10,19,20-triazatetracyclo[13.5.2.1^2,6.0^18,21]tricosa-1(20),2,4,6(23),15,17,21-heptaen-9-one] cannot be ordered by IC50: < 0.01 µM for the first, < 0.01 µM for the second.

`CN1CCN(c2cc3cc(c2)-c2n[nH]c4ccc(cc24)OCCCNC(=O)OC3)CC1` [Example 31, 4-(4-methylpiperazin-1-yl)-8,14-dioxa-10,19,20-triazatetracyclo[13.5.2.1^2,6.0^18,21]tricosa-1(20),2,4,6(23),15,17,21-heptaen-9-one] and `CN1CCN(Cc2cc3cc(c2)-c2n[nH]c4ccc(cc24)OCCCNC(=O)OC3)CC1` [Example 44, 4-[(4-methylpiperazin-1-yl)methyl]-8,14-dioxa-10,19,20-triazatetracyclo[13.5.2.1^2,6.0^18,21]tricosa-1(20),2,4,6(23),15,17,21-heptaen-9-one] cannot be ordered by IC50: < 0.01 µM for the first, < 0.01 µM for the second.

`COC1CN(c2cc3cc(c2)-c2n[nH]c4ccc(cc24)OCCCNC(=O)OC3)C1` [Example 32, 4-(3-methoxyazetidin-1-yl)-8,14-dioxa-10,19,20-triazatetracyclo[13.5.2.1^2,6.0^18,21]tricosa-1(20),2,4,6(23),15,17,21-heptaen-9-one] and `O=C1NCCCOc2ccc3[nH]nc(c3c2)-c2cc(cc(N3CCCCC3)c2)CO1` [Example 36, 4-(piperidin-1-yl)-8,14-dioxa-10,19,20-triazatetracyclo[13.5.2.1^2,6.0^18,21]tricosa-1(20),2,4,6(23),15,17,21-heptaen-9-one] cannot be ordered by IC50: < 0.01 µM for the first, < 0.01 µM for the second.

`N#CC1CCN(c2cc3cc(c2)-c2n[nH]c4ccc(cc24)OCCCNC(=O)OC3)CC1` [Example 33, 1-{9-oxo-8,14-dioxa-10,19,20-triazatetracyclo[13.5.2.1^2,6.0^18,21]tricosa-1(20),2,4,6(23),15,17,21-heptaen-4-yl}piperidine-4-carbonitrile] and `O=C1NCCCOc2ccc3[nH]nc(c3c2)-c2cc(cc(N3CCC(N4CCCC4)CC3)c2)CO1` [Example 34, 4-[4-(pyrrolidin-1-yl)piperidin-1-yl]-8,14-dioxa-10,19,20-triazatetracyclo[13.5.2.1^2,6.0^18,21]tricosa-1(20),2,4,6(23),15,17,21-heptaen-9-one] cannot be ordered by IC50: < 0.01 µM for the first, < 0.01 µM for the second.

`O=C1NCCCOc2ccc3[nH]nc(c3c2)-c2cc(cc(C3=CCOC3)c2)CO1` [Example 37, 4-(2,5-dihydrofuran-3-yl)-8,14-dioxa-10,19,20-triazatetracyclo[13.5.2.1^2,6.0^18,21]tricosa-1(20),2,4,6(23),15,17,21-heptaen-9-one] and `CN1CC=C(c2cc3cc(c2)-c2n[nH]c4ccc(cc24)OCCCNC(=O)OC3)CC1` [Example 39, 4-(1-methyl-1,2,3,6-tetrahydropyridin-4-yl)-8,14-dioxa-10,19,20-triazatetra cyclo[13.5.2.1^2,6.0^18,21]tricosa-1(20),2,4,6(23),15,17,21-heptaen-9-one] cannot be ordered by IC50: < 0.01 µM for the first, < 0.01 µM for the second.

`O=C1NCCCOc2ccc3[nH]nc(c3c2)-c2cc(cc(N3CCC(N4CCOCC4)CC3)c2)CO1` [Example 38, 4-[4-(morpholin-4-yl)piperidin-1-yl]-8,14-dioxa-10,19,20-triazatetracyclo[13.5.2.1^2,6.0^18,21]tricosa-1(20),2,4,6(23),15,17,21-heptaen-9-one] and `O=C1NCCCOc2ccc3[nH]nc(c3c2)-c2cc(cc(CN3CCOCC3)c2)CO1` [Example 41, 4-[(morpholin-4-yl)methyl]-8,14-dioxa-10,19,20-triazatetracyclo[13.5.2.1^2,6.0^18,21]tricosa-1(20),2,4,6(23),15,17,21-heptaen-9-one] cannot be ordered by IC50: < 0.01 µM for the first, < 0.01 µM for the second.

`O=C1NCCCOc2ccc3[nH]nc(c3c2)-c2cc(cc(N3C[C@@H]4C[C@H]3CO4)c2)CO1` [Example 40] and `O=C1NCCCOc2ccc3[nH]nc(c3c2)-c2cc(cc(C3CC3)c2)CO1` [Example 48, 4-cyclopropyl-8,14-dioxa-10,19,20-triazatetracyclo[13.5.2.1^2,6.0^18,21]tricosa-1(20),2,4,6(23),15,17,21-heptaen-9-one] cannot be ordered by IC50: < 0.01 µM for the first, < 0.01 µM for the second.

Compared with `O=C1NCCCOc2ccc3[nH]nc(c3c2)-c2cc(cc(CN3CCCC3)c2)CO1` [Example 42, 4-[(pyrrolidin-1-yl)methyl]-8,14-dioxa-10,19,20-triazatetracyclo[13.5.2.1^2,6.0^18,21]tricosa-1(20),2,4,6(23),15,17,21-heptaen-9-one], `O=C1NCCCOc2ccc3[nH]nc(c3c2)-c2cc(cc(CN3CCCCC3)c2)CO1` [Example 43] is higher in IC50: < 0.01 µM for the first, 0.01 to 0.1 µM for the second. The first is the more potent here.

First: O=C1NCCCOc2ccc3[nH]nc(c3c2)-c2ccc(N3CCOCC3)c(c2)CO1 [Example 45, 5-(morpholin-4-yl)-8,14-dioxa-10,19,20-triazatetracyclo[13.5.2.1^2,6.0^18,21]tricosa-1(20),2,4,6(23),15,17,21-heptaen-9-one]
Second: CN1CCN(c2ccc3cc2COC(=O)NCCCOc2ccc4[nH]nc-3c4c2)CC1 [Example 49, 5-(4-methylpiperazin-1-yl)-8,14-dioxa-10,19,20-triazatetracyclo[13.5.2.1^2,6.0^18,21]tricosa-1(20),2,4,6(23),15,17,21-heptaen-9-one]
The IC50 of the first is lower: < 0.01 µM for the first, 0.01 to 0.1 µM for the second.

`O=C1NCCCOc2ccc3[nH]nc(c3c2)-c2cnn(c2)CCO1` [Example 51, 8,14-dioxa-4,5,10,19,20-pentaazatetracyclo[13.5.2.1^2,5.0^18,21]tricosa-1(20),2(23),3,15(22),16,18(21)-hexaen-9-one] and `CN(c1cc2cc(c1)-c1n[nH]c3ccc(cc13)OCCCNC(=O)OC2)C1COC1` [Example 52, 4-[methyl(oxetan-3-yl)amino]-8,14-dioxa-10,19,20-triazatetracyclo[13.5.2.1^2,6.0^18,21]tricosa-1(20),2,4,6(23),15,17,21-heptaen-9-one] cannot be ordered by IC50: < 0.01 µM for the first, < 0.01 µM for the second.
